Data published in patent publication US20260102501A1, “ANTI-CANCER NUCLEAR HORMONE RECEPTOR-TARGETING COMPOUNDS” (Nuvation Bio Inc., priority 2022, published 2026).
Numbered stars: 1 amine (or outer) side, 2 acyl side, 3 side chain; on linkers, the order of the positions; unused ones are H or OH. Square brackets hold non-standard residues; d marks the D form. Peptide text beside a SMILES is read from it. * marks the point of attachment. X1 = CC(=O)O[C@]1(C(C)=O)CC[C@H]2[C@@H]3CCC4=CC(=O)CCC4=C3[C@@H](c3ccc(*)cc3)C[C@@]21C; Exatecan = CC[C@@]1(O)C(=O)OCc2c1cc1n(c2=O)Cc2c-1nc1cc(F)c(C)c3c1c2[C@@H](N*)CC3; NHCH2OCH2CO = O=C(COCN[*:1])[*:2]; Sar = CNCC(=O)O

Legend:
22Rv1 cells = experiment: Cell viability assay (CellTiterGlo); conditions: Homo sapiens, 22Rv1, 144 h, read-out: 22RV1 (IC50, nM)
[1] = biological target: T1, Progesterone Receptor (PR)-LBD and coactivator peptide (Homo sapiens, UniProt P06401); experiment: PR coactivator antagonist assay; conditions: 2.5 nM PR-LBD, 10 nM progesterone-induced fluorescence response
T1 sequence (P06401 679-913 limits assumed): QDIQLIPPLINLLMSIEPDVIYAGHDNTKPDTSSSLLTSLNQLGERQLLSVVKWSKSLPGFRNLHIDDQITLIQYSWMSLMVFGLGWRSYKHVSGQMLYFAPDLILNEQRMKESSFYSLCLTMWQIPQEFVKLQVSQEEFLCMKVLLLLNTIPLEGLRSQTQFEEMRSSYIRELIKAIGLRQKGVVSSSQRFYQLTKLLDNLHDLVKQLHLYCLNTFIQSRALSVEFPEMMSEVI

IEC6 cells = experiment: Cell viability assay (CellTiterGlo); conditions: Rattus norvegicus, IEC-6, 144 h, read-out: IEC-6 (IC50, nM)
Method: Cell viability assay: LNCap, 22Rv1, MCF7, MDAMB361, T47D, and IEC6 cells were seeded at a density of 500-2000 cells/well in 96 well plates, and a ‘T0’ (timepoint 0) was included along with the assay plate. The plates were then incubated at 37° C., 5% CO2 in a cell culture incubator overnight. On the next day, the ‘T0’ plate was assayed using CellTiterGlo (Promega, Inc) according to the manufacturer's instructions. The appropriate compounds were diluted in DMSO and added to the assay plate (final DMSO concentration of 0.1-0.2%) on the next day. The assay plates were incubated for 6 days at 37° C., 5% CO2. After the incubation period, the plates were assayed using CellTiterGlo (Promega, Inc) according to the manufacturer's instructions and luminescence was read on the En Vision plate reader. […] GraphPadPrism was used to analyze the data and determine GI50/IC50 values.

T47D cells = experiment: Cell viability assay (CellTiterGlo); type: cell-based; conditions: Homo sapiens, 144 h, read-out: T47D (IC50, nM)
[2] = biological target: T2, Progesterone PR-B receptors from human breast carcinoma T47D cells (Homo sapiens, UniProt P06401); experiment: PR binding assay ([3H] Progesterone displacement)
T2 sequence (P06401 1-933): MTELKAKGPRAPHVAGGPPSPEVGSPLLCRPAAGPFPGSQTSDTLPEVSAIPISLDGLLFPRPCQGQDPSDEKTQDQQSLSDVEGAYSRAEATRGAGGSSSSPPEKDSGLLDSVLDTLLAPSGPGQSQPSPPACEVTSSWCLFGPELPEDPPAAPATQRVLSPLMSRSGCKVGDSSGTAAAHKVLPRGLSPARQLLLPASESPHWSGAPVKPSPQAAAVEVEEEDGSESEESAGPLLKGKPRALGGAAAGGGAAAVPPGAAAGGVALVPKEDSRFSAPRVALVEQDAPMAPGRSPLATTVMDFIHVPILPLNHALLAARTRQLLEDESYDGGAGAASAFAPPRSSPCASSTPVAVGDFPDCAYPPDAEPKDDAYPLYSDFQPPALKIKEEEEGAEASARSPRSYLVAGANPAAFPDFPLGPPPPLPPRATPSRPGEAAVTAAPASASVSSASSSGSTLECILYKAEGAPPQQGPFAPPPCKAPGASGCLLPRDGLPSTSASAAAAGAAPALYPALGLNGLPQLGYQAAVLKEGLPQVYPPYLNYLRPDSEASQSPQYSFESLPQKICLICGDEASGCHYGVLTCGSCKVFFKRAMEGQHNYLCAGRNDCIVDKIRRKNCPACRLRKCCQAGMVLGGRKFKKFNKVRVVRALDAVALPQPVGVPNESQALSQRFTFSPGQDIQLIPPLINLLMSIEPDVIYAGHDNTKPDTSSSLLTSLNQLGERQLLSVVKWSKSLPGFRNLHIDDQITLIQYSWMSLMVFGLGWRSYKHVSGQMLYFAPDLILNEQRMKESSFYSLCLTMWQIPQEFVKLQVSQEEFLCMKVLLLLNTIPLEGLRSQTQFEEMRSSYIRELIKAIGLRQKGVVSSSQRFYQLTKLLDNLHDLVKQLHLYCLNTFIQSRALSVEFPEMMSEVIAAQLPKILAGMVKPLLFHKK

[3] = biological target: T3, full-length androgen receptor (HEK293 cells stably expressing) (Homo sapiens, UniProt P10275); experiment: AR antagonism assay (luciferase reporter)
T3 sequence (P10275 1-920): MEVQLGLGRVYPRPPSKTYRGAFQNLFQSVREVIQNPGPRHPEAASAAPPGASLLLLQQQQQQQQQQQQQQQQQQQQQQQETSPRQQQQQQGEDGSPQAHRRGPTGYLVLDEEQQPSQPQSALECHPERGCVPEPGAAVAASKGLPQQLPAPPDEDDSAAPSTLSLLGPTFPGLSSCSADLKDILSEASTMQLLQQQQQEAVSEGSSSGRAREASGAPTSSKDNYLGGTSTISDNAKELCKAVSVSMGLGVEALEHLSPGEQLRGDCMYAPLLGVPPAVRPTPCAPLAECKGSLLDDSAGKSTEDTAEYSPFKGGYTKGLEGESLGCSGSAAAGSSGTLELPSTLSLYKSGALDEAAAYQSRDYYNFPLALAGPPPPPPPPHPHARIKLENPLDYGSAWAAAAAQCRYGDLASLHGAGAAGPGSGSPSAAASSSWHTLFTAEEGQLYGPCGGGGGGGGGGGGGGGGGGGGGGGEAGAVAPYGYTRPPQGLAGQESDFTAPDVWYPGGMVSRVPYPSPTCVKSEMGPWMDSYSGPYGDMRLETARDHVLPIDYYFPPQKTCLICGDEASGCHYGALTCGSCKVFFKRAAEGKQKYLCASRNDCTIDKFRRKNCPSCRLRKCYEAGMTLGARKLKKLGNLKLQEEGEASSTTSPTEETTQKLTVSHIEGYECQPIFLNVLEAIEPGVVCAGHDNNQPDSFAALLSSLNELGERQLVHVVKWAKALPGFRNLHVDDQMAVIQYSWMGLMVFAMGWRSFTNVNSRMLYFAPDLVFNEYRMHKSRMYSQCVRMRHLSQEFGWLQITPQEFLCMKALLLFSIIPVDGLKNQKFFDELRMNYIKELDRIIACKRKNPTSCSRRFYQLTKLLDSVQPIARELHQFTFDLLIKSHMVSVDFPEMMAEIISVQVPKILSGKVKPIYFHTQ

CC[C@@]1(O)C(=O)OCc2c1cc1n(c2=O)Cc2c-1nc1cc(F)c(C)c3c1c2[C@@H](NC(=O)COCNC(=O)CNC(=O)[C@H](Cc1ccccc1)NC(=O)CNC(=O)CN(C)c1ccc([C@H]2C[C@@]4(C)[C@@H](CC[C@]4(OC(C)=O)C(C)=O)[C@@H]4CCC5=CC(=O)CCC5=C42)cc1)CC3 [Compound 34, (8S,11R,13S,14S,17R)-17-Acetyl-11-(4-(((S)-10-benzyl-1-(((1S,9S)-9-ethyl-5-fluoro-9-hydroxy-4-methyl-10,13-dioxo-2,3,9,10,13,15-hexahydro-1H,12H-benzo[de]pyrano[3′,4′:6,7]indolizino[1,2-b]quinolin-1-yl)amino)-1,6,9, 12,15-pentaoxo-3-oxa-5,8,11,14-tetraazahexadecan-16-yl)(methyl)amino)phenyl)-13-methyl-3-oxo-2,3,6,7,8,11,12,13,14,15,16,17-dodecahydro-1H-cyclopenta[a]phenanthren-17-yl Acetate] (X1-[Sar]GFG[NHCH2OCH2CO]-Exatecan)
IC50 (22Rv1 cells): 101 to 1000 nM | PR antagonism [1]: a (IC50 =< 10 nM) | IC50 (IEC6 cells): 101 to 1000 nM | IC50 (T47D cells): 101 to 1000 nM | IC50 [2]: < 10 nM | IC50 [3]: > 1000 nM
